In publication PMC6188661 (Journal of medicinal chemistry, 2013):
Starred links: 1 amine or outer side, 2 acyl side, 3 side chain; linkers in the order of their positions; H or OH if unused. Non-standard residues stand in square brackets, D forms with d. Residues, ends and D or L forms follow the SMILES beside them. αMeNva(5-ylidene) = C[C@@](CCC=[*:3])(N[*:1])C(=O)[*:2]; S5 = C=CCCC[C@](C)(N)C(=O)O

Assays:
[1] = target: T1, HIV-1 integrase (IN) (Human immunodeficiency virus type 1 group M subtype B, UniProt P04585); experiment: In vitro HIV-1 IN catalytic activity inhibition, 3′-processing; assay type: biochemical
[2] = target: T1, HIV-1 integrase (IN); experiment: In vitro HIV-1 IN catalytic activity inhibition, strand transfer; assay type: biochemical
[3] = test system: MT-4 cells; experiment: Cytotoxicity in MT-4 cells; assay type: cell-based; details: 50% cell-death in same cells (MT-4)
[4] = test system: HIV-1; details: 50% cytoprotective activity in HIV-1 infected MT-4 cells

SMILES | IC50 [1] | IC50 [2] | CC50 [3] | EC50 [4]
C=CCCC[C@](C)(NC(=O)[C@H](CC(C)C)NC(=O)[C@H](CCCCN)NC(=O)[C@H](CC(C)C)NC(=O)[C@](C)(CCCC=C)NC(=O)[C@H](Cc1ccccc1)NC(=O)[C@H](Cc1ccc(O)cc1)NC(=O)[C@H](C)NC(=O)[C@@H](N)[C@@H](C)O)C(=O)NCC(=O)N[C@@H](CCCNC(=N)N)C(=O)N[C@@H](Cc1c[nH]c2ccccc12)C(N)=O [NLH5] (H-TAYF[S5]LKL[S5]GRW-NH2; N-terminus assumed) | 9 ± 1 µM | 6 ± 1 µM | 28 µM | 28 µM
C=CCC[C@](C)(NC(=O)[C@H](CC(C)C)NC(=O)[C@H](CCCCN)NC(=O)[C@H](CC(C)C)NC(=O)[C@](C)(CCC=C)NC(=O)[C@H](Cc1ccccc1)NC(=O)[C@H](Cc1ccc(O)cc1)NC(=O)[C@H](C)NC(=O)[C@@H](N)[C@@H](C)O)C(=O)NCC(=O)N[C@@H](CCCNC(=N)N)C(=O)N[C@@H](Cc1c[nH]c2ccccc12)C(N)=O [NLH11] (H-TAYF[αMeNva(5-ylidene)]LKL[αMeNva(5-ylidene)]GRW-NH2; N-terminus assumed) | 74 ± 11 µM | 68 ± 5 µM | 18 µM | > 18 µM
